Results on 15 compounds are retold here after patent US20240246964A1 (Arbutus Biopharma Corporation, priority 2021, published 2024).

SMILES strings stand for the structures.

The target in this test is human PD-L1 (Homo sapiens (Human), UniProt Q9NZQ7). Nature of the test: T cell activation luciferase reporter cell culture system (T Cell Activation Assay). It counts as cell-based. The note with it: luciferase reporter assay; PD-L1 aAPC/CHO-K1 cells with PD-1 effector Jurkat T cells.
human PD-L1, sequence (Q9NZQ7 19-290): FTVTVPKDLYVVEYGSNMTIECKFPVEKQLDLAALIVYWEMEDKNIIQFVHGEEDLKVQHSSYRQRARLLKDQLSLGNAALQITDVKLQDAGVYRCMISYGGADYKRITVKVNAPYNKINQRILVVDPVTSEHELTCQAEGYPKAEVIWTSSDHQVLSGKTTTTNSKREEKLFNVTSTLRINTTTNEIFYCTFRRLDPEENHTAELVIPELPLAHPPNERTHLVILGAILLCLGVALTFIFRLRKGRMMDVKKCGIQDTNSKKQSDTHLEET
By EC50 is commonly meant the concentration needed to bring the measured effect to its halfway point. The low end stands for a more potent agent, the high end for a less potent agent. In the case of `COc1nc(-c2ccnc(-c3cccc4c3CC[C@@H]4Oc3nc(OC)c(CNC[C@H](C)O)cc3C(F)(F)F)c2Cl)ccc1CNC[C@H](C)O` [Example 253, (S)-1-(((3′-Chloro-2′-((S)-1-((5-((((S)-2-hydroxypropyl)amino)methyl)-6-methoxy-3-(trifluoromethyl)pyridin-2-yl)oxy)-2,3-dihydro-1H-inden-4-yl)-6-methoxy-[2,4′-bipyridin]-5-yl)methyl)amino)propan-2-ol], the EC50 amounted to 39.2 nM. In turn, `COc1nc(-c2cccc(-c3ccnc(-c4ccc5c(c4)CCC[C@H]5NC[C@@H]4CCC(=O)N4)c3Cl)c2Cl)ccc1CN1CC2(CNC(=O)C2)C1` [Example 255, 2-((6-(2-chloro-3-(3-chloro-2-((R)-5-((((S)-5-oxopyrrolidin-2-yl)-methyl)-amino)-5,6,7,8-tetrahydronaphthalen-2-yl)pyridin-4-yl)phenyl)-2-methoxypyridin-3-yl)methyl)-2,6-diazaspiro[3.4]octan-7-one] registered an EC50 of 305 nM. Regarding `COc1nc(-c2cccc(-c3ccnc(-c4ccc5c(c4)CCC[C@H]5NC[C@@H]4CCC(=O)N4)c3Cl)c2Cl)ccc1CNC[C@H](C)O` [Example 256, (S)-5-((((R)-6-(3-Chloro-4-(2-chloro-3-(5-((((S)-2-hydroxypropyl)amino)methyl)-6-methoxypyridin-2-yl)phenyl)pyridin-2-yl)-1,2,3,4-tetrahydronaphthalen-1-yl)amino)methyl)pyrrolidin-2-one], the response was half-maximal at 168 nM (EC50). For `COc1nc(-c2cccc(-c3ccnc(-c4ccc5c(c4)CCC[C@H]5NC[C@@H]4CCC(=O)N4)c3Cl)c2Cl)ccc1CN[C@H]1CCOC1=O` [Example 257, (S)-5-((((R)-6-(3-Chloro-4-(2-chloro-3-(6-methoxy-5-((((S)-2-oxotetrahydrofuran-3-yl)amino)methyl)pyridin-2-yl)phenyl)pyridin-2-yl)-1,2,3,4-tetrahydronaphthalen-1-yl)amino)methyl)pyrrolidin-2-one], the EC50 is no less than 10000 nM. `COc1nc(-c2cccc(-c3ccnc(-c4cc(OC)c5nc(CNC[C@@H]6CCC(=O)N6)nn5c4)c3Cl)c2Cl)ccc1CNC[C@@H]1CCC(=O)N1` [Example 258, (S)-5-((((6-(2-chloro-3-(3-chloro-2-(8-methoxy-2-(((((S)-5-oxopyrrolidin-2-yl)methyl)amino)methyl)-[1,2,4]triazolo[1,5-a]pyridin-6-yl)pyridin-4-yl)phenyl)-2-methoxypyridin-3-yl)methyl)amino)methyl)pyrrolidin-2-one] had an EC50 of 75.4 nM. On to `COc1nc(-c2cccc(-c3ccnc(-c4cc(OC)c5nc(CN6CC(C)(O)C6)nn5c4)c3Cl)c2Cl)ccc1CNC[C@@H]1CCC(=O)N1` [Example 259, (S)-5-((((6-(2-Chloro-3-(3-chloro-2-(2-((3-hydroxy-3-methylazetidin-1-yl)methyl)-8-methoxy-[1,2,4]triazolo[1,5-a]pyridin-6-yl)pyridin-4-yl)phenyl)-2-methoxypyridin-3-yl)methyl)amino)methyl)pyrrolidin-2-one], for which the EC50 came out at 58.6 nM. Consider `COc1nc(-c2cccc(-c3ccnc(-c4cc(OC)c5nc(CN[C@H]6CC[C@H](O)CC6)nn5c4)c3Cl)c2Cl)ccc1CNC[C@@H]1CCC(=O)N1` [Example 260, (S)-5-((((6-(2-Chloro-3-(3-chloro-2-(2-((((1r,4r)-4-hydroxycyclohexyl)amino)methyl)-8-methoxy-[1,2,4]triazolo[1,5-a]pyridin-6-yl)pyridin-4-yl)phenyl)-2-methoxypyridin-3-yl)methyl)amino)methyl)pyrrolidin-2-one], for which the concentration giving a half-maximal response (EC50) was found to be 26.8 nM. In the case of `COc1nc(-c2cccc(-c3ccnc(-c4cc(OC)c5nc(CN6CC(C(=O)O)C6)nn5c4)c3Cl)c2Cl)ccc1CNC[C@@H]1CCC(=O)N1` [Example 261, (S)-1-((6-(3-Chloro-4-(2-chloro-3-(6-methoxy-5-((((5-oxopyrrolidin-2-yl)methyl)amino)methyl)pyridin-2-yl)phenyl)pyridin-2-yl)-8-methoxy-[1,2,4]triazolo[1,5-a]pyridin-2-yl)methyl)azetidine-3-carboxylic acid], a half-maximal response (EC50) required 126 nM. The figure for `COc1nc(-c2cccc(-c3ccnc(-c4cc(OC)c5nc(CNCCC6(C(=O)O)CC6)nn5c4)c3Cl)c2Cl)ccc1CNC[C@@H]1CCC(=O)N1` [Example 262, (S)-1-(2-(((6-(3-Chloro-4-(2-chloro-3-(6-methoxy-5-((((5-oxopyrrolidin-2-yl)methyl)amino)methyl)pyridin-2-yl)phenyl)pyridin-2-yl)-8-methoxy-[1,2,4]triazolo[1,5-a]pyridin-2-yl)methyl)amino)ethyl)cyclopropane-1-carboxylic acid] is 82.8 nM; for `COc1cc(-c2nccc(-c3cccc(-c4ccc5c(CN(C)C6CCN(C(C)=O)CC6)cn(C)c5n4)c3Cl)c2Cl)ccc1CNC1CCN(C(C)=O)CC1` [Example 264, 1-(4-((4-(4-(3-(3-(((1-acetylpiperidin-4-yl)(methyl)amino)methyl)-1-methyl-1H-pyrrolo[2,3-b]pyridin-6-yl)-2-chlorophenyl)-3-chloropyridin-2-yl)-2-methoxybenzyl)amino)piperidin-1-yl)ethan-1-one] it is 47.7 nM.

`COc1nc(-c2cccc(-c3ccnc(-c4ccc5c(c4)CCC[C@H]5NC[C@@H]4CCC(=O)N4)c3Cl)c2Cl)ccc1CN[C@@H](CCO)C(=O)O` [Example 265, ((6-(2-Chloro-3-(3-chloro-2-((R)-5-((((S)-5-oxopyrrolidin-2-yl)methyl)amino)-5,6,7,8-tetrahydronaphthalen-2-yl)pyridin-4-yl)phenyl)-2-methoxypyridin-3-yl)methyl)-L-homoserine] displayed an EC50 of 368 nM. The figure for `COc1cc(-c2nccc(-c3cccc4c3CC[C@@H]4Oc3nc(OC)c(CNC[C@H](C)O)cc3C(F)(F)F)c2Cl)ccc1CNC[C@H](C)O` [Example 270, (S)-1-(((6-(((S)-4-(3-Chloro-2-(4-((((S)-2-hydroxypropyl)amino)methyl)-3-methoxyphenyl)pyridin-4-yl)-2,3-dihydro-1H-inden-1-yl)oxy)-2-methoxy-5-(trifluoromethyl)pyridin-3-yl)methyl)amino)propan-2-ol] is 85.5 nM. `COc1cc(-c2nccc(-c3cccc(-c4ccc(CNC5CCN(C(C)=O)CC5)c(OC)n4)c3Cl)c2C)ccc1CNC1CCN(C(C)=O)CC1` [Example 271, 1-(4-(((6-(3-(2-(4-(((1-Acetylpiperidin-4-yl)amino)methyl)-3-methoxyphenyl)-3-methylpyridin-4-yl)-2-chlorophenyl)-2-methoxypyridin-3-yl)methyl)amino)piperidin-1-yl)ethan-1-one] had an EC50 of 183 nM. `COC(=O)CCN1CCc2cc(-c3nccc(-c4cccc(-c5ccc(CNC[C@H](C)O)c(OC)n5)c4Cl)c3Cl)cc(OC)c2C1` [Example 272, Methyl (S)-3-(6-(3-chloro-4-(2-chloro-3-(5-(((2-hydroxypropyl)amino)methyl)-6-methoxypyridin-2-yl)phenyl)pyridin-2-yl)-8-methoxy-3,4-dihydroisoquinolin-2(1H)-yl)propanoate]: the EC50 came to 88.2 nM. `COC(=O)CCN1CCc2cc(-c3nccc(-c4cccc(-c5ccc(CN6CC7(CNC(=O)C7)C6)c(OC)n5)c4Cl)c3Cl)cc(OC)c2C1` [Example 273, Methyl 3-(6-(3-chloro-4-(2-chloro-3-(6-methoxy-5-((7-oxo-2,6-diazaspiro[3.4]octan-2-yl)methyl)pyridin-2-yl)phenyl)pyridin-2-yl)-8-methoxy-3,4-dihydroisoquinolin-2(1H)-yl)propanoate] gave an EC50 of 116 nM.
